According to US11026426B2, “Oxadiazole and phenol derivatives as antibacterial and/or herbicidal agents” (NORTHERN ILLINOIS RESEARCH FOUNDATION, priority 2017, dated 2021):

Key:
Format in all cases: cell-based
Escherichia coli = test: Antibacterial assay zone of inhibition Ec
Pseudomonas aeruginosa = test: Antibacterial assay zone of inhibition Pa
Corynebacterium xerosis = test: Antibacterial assay zone of inhibition Cx
[1] = system: Corynebacterium pseudodiphtheriae; test: Antibacterial assay zone of inhibition Cp
Klebsiella pneumonia = test: Antibacterial assay zone of inhibition Kp
Mycobacterium smegmatis = test: Antibacterial assay zone of inhibition Ms
[2] = system: Burkholderia thailandensis
Bacillus cereus = test: Antibacterial assay zone of inhibition Bc
Micrococcus luteus = test: Antibacterial assay zone of inhibition Ml

SMILES: Cc1cccc(OCc2nnc(-c3nc4ccccc4s3)o2)c1 [HGN-837]
- Antibacterial Ec zone of inhibition (Escherichia coli; 0.1 mM): 0 millimeters
- Antibacterial Ec zone of inhibition (Escherichia coli; 0.5 mM): 10 millimeters
- Antibacterial Ec zone of inhibition (Escherichia coli; 1 mM): 17 millimeters
- Antibacterial Pa zone of inhibition (Pseudomonas aeruginosa; 0.1 mM): 0 millimeters
- Antibacterial Pa zone of inhibition (Pseudomonas aeruginosa; 0.5 mM): 0 millimeters
- Antibacterial Pa zone of inhibition (Pseudomonas aeruginosa; 1 mM): 0 millimeters
- Antibacterial Cx zone of inhibition (Corynebacterium xerosis; 0.1 mM): 0 millimeters
- Antibacterial Cx zone of inhibition (Corynebacterium xerosis; 0.5 mM): 11 millimeters
- Antibacterial Cx zone of inhibition (Corynebacterium xerosis; 1 mM): 17 millimeters
- Antibacterial Cp zone of inhibition ([1]; 0.1 mM): 0 millimeters
- Antibacterial Cp zone of inhibition ([1]; 0.5 mM): 0 millimeters
- Antibacterial Cp zone of inhibition ([1]; 1 mM): 0 millimeters
- Antibacterial Kp zone of inhibition (Klebsiella pneumonia; 0.1 mM): 0 millimeters
- Antibacterial Kp zone of inhibition (Klebsiella pneumonia; 0.5 mM): 0 millimeters
- Antibacterial Kp zone of inhibition (Klebsiella pneumonia; 1 mM): 0 millimeters
- Antibacterial Ms zone of inhibition (Mycobacterium smegmatis; 0.1 mM): 0 millimeters
- Antibacterial Ms zone of inhibition (Mycobacterium smegmatis; 0.5 mM): 0 millimeters
- Antibacterial Ms zone of inhibition (Mycobacterium smegmatis; 1 mM): 0 millimeters
- Antibacterial Bt zone of inhibition [2]: 0 13 19.5 millimeters
- Antibacterial Bc zone of inhibition (Bacillus cereus; 0.1 mM): 0 millimeters
- Antibacterial Bc zone of inhibition (Bacillus cereus; 0.5 mM): 13 millimeters
- Antibacterial Bc zone of inhibition (Bacillus cereus; 1 mM): 19 millimeters
- Antibacterial Ml zone of inhibition (Micrococcus luteus; 0.1 mM): 0 millimeters
- Antibacterial Ml zone of inhibition (Micrococcus luteus; 0.5 mM): 6 millimeters
- Antibacterial Ml zone of inhibition (Micrococcus luteus; 1 mM): 10 millimeters

SMILES: c1ccc(OCc2nnc(-c3nc4ccccc4s3)o2)cc1 [HGN-840]
- Antibacterial Ec zone of inhibition (Escherichia coli; 0.1 mM): 0 millimeters
- Antibacterial Ec zone of inhibition (Escherichia coli; 0.5 mM): 0 millimeters
- Antibacterial Ec zone of inhibition (Escherichia coli; 1 mM): 0 millimeters
- Antibacterial Pa zone of inhibition (Pseudomonas aeruginosa; 0.1 mM): 0 millimeters
- Antibacterial Pa zone of inhibition (Pseudomonas aeruginosa; 0.5 mM): 0 millimeters
- Antibacterial Pa zone of inhibition (Pseudomonas aeruginosa; 1 mM): 0 millimeters
- Antibacterial Cx zone of inhibition (Corynebacterium xerosis; 0.1 mM): 0 millimeters
- Antibacterial Cx zone of inhibition (Corynebacterium xerosis; 0.5 mM): 0 millimeters
- Antibacterial Cx zone of inhibition (Corynebacterium xerosis; 1 mM): 0 millimeters
- Antibacterial Cp zone of inhibition ([1]; 0.1 mM): 0 millimeters
- Antibacterial Cp zone of inhibition ([1]; 0.5 mM): 12 millimeters
- Antibacterial Cp zone of inhibition ([1]; 1 mM): 19 millimeters
- Antibacterial Kp zone of inhibition (Klebsiella pneumonia; 0.1 mM): 0 millimeters
- Antibacterial Kp zone of inhibition (Klebsiella pneumonia; 0.5 mM): 0 millimeters
- Antibacterial Kp zone of inhibition (Klebsiella pneumonia; 1 mM): 16.5 millimeters
- Antibacterial Ms zone of inhibition (Mycobacterium smegmatis; 0.1 mM): 0 millimeters
- Antibacterial Ms zone of inhibition (Mycobacterium smegmatis; 0.5 mM): 0 millimeters
- Antibacterial Ms zone of inhibition (Mycobacterium smegmatis; 1 mM): 0 millimeters
- Antibacterial Bt zone of inhibition [2]: 0 14 17.5 millimeters
- Antibacterial Bc zone of inhibition (Bacillus cereus; 0.1 mM): 0 millimeters
- Antibacterial Bc zone of inhibition (Bacillus cereus; 0.5 mM): 0 millimeters
- Antibacterial Bc zone of inhibition (Bacillus cereus; 1 mM): 14.5 millimeters
- Antibacterial Ml zone of inhibition (Micrococcus luteus; 0.1 mM): 0 millimeters
- Antibacterial Ml zone of inhibition (Micrococcus luteus; 0.5 mM): 0 millimeters
- Antibacterial Ml zone of inhibition (Micrococcus luteus; 1 mM): 0 millimeters
